From US20050288351A1, “Azaspiro compounds for the treatment of pain” (Schwarz Pharma AG, priority 2002, published 2005)

Columns and labels:
NMRl mice = experiment: formalin test, in-vivo test for determining the analgesic efficacy; design: key to Mean deviation of the pain reaction compared to control (%) (n minutes after administration of formalin) 20-25′ / Mean deviation of the pain reaction compared to control (%) (n minutes after administration of formalin) 30-35′: (+): Intensified pain reaction; details: for Mean deviation of the pain reaction compared to control (%) (n minutes after administration of formalin) 20-25′: 20-25′ after formalin; for Mean deviation of the pain reaction compared to control (%) (n minutes after administration of formalin) 30-35′: 30-35′ after formalin; for Mean deviation of the pain reaction compared to control (%) (n minutes after administration of formalin) 40-45′: 40-45′ after formalin; for average reduction of the pain reaction: after 30-45 minutes in the formalin test
Method: (§1) In each case, the maximum dosage selected for the concentration of azaspiro compounds was held, by a factor of about 2, below the toxic dose previously determined in the IRWIN test (Irwin, Psychopharmacologia 13 (1968) 222).
A reduction in the pain reaction is expressed in negative percentage figures.
The test was conducted as described by Wheeler-Aceto (Psychopharmacology 104, 1991, 35).
NMRl mice having a weight of 20-25 g were kept under controlled conditions (22±2° C., 40-70% relative humidity). 25 μl of a 5% […] solution was injected in the hind leg and the leg-licking frequency was then clocked for 5 minutes each at defined intervals (20, 30, 40 minutes).
(§2) First, the highest possible non-toxic concentration of the respective test substances that could be used was determined by an IRWIN test (Irwin, Psychopharmacologia 13, 1968, 222).
The test substances were dissolved in a physiological salt solution with 0.5% sodium carboxymethyl cellulose and were each measured in 1-3 dosages that had been applied intraperitoneally 10 minutes before administration of formalin. The comparative reference value was provided by a control excipient (10 ml/kg).
The test was performed in blind fashion on 10 mice per test series. The evaluation was based on a comparison of the treated animals with control excipients at three different times. […] Accordingly, an average 50% reduction of the pain reaction for the treated animals is obtained when in a defined period (e.g. 30-35′ after the formalin injection) the leg-licking duration (averaged over the 10 test animals) is reduced by 50% compared to the untreated animals. The statistical significance was determined using the Mann-Whitney U-test.

[1] = side effects above the maximum tolerable dosages (IRWIN test); type: in vivo
Method: as §1, with “FIG. 1 and Table 1 show the reaction of test animals (10 mice each) 20-45 minutes after the intraperitoneal administration of selected compounds. In” for “In”
as §2

[2] = 8 mg/kg i.p., Test series 1, n = 10 mice
[3] = 8 mg/kg i.p., Test series 2, n = 10 mice
[4] = 16 mg/kg i.p., Test series 1, n = 10 mice
[5] = 16 mg/kg i.p., Test series 2, n = 10 mice
[6] = 32 mg/kg i.p., Test series 1, n = 10 mice
[7] = 32 mg/kg i.p., Test series 2, n = 10 mice
[8] = 4 mg/kg i.p., Test series 2, n = 10 mice
[9] = 64 mg/kg i.p., Test series 1, n = 10 mice
[10] = 64 mg/kg i.p., Test series 2, n = 10 mice

SMILES: O=C1CC2(CCCCC2)CN1 [GBP-L, 2-azaspiro[4.5]decan-3-on, reference compound]
- Mean deviation of the pain reaction compared to control (%) (n minutes after administration of formalin) 20-25′ (NMRl mice; [2]): −58%
- Mean deviation of the pain reaction compared to control (%) (n minutes after administration of formalin) 30-35′ (NMRl mice; [2]): −18%
- Mean deviation of the pain reaction compared to control (%) (n minutes after administration of formalin) 40-45′ (NMRl mice; [2]): −15%
- Mean deviation of the pain reaction compared to control (%) (n minutes after administration of formalin) 20-25′ (NMRl mice; [3]): (+)
- Mean deviation of the pain reaction compared to control (%) (n minutes after administration of formalin) 30-35′ (NMRl mice; [3]): (+)
- Mean deviation of the pain reaction compared to control (%) (n minutes after administration of formalin) 20-25′ (NMRl mice; [4]): −74%
- Mean deviation of the pain reaction compared to control (%) (n minutes after administration of formalin) 30-35′ (NMRl mice; [4]): −40%
- Mean deviation of the pain reaction compared to control (%) (n minutes after administration of formalin) 40-45′ (NMRl mice; [4]): −41%
- Mean deviation of the pain reaction compared to control (%) (n minutes after administration of formalin) 20-25′ (NMRl mice; [5]): (+)
- Mean deviation of the pain reaction compared to control (%) (n minutes after administration of formalin) 30-35′ (NMRl mice; [5]): (+)
- Mean deviation of the pain reaction compared to control (%) (n minutes after administration of formalin) 20-25′ (NMRl mice; [6]): −64%
- Mean deviation of the pain reaction compared to control (%) (n minutes after administration of formalin) 30-35′ (NMRl mice; [6]): −15%
- Mean deviation of the pain reaction compared to control (%) (n minutes after administration of formalin) 40-45′ (NMRl mice; [6]): −46%
- Mean deviation of the pain reaction compared to control (%) (n minutes after administration of formalin) 20-25′ (NMRl mice; [7]): (+)
- Mean deviation of the pain reaction compared to control (%) (n minutes after administration of formalin) 30-35′ (NMRl mice; [7]): −10%
- lethality [1]: significant lethality rate

SMILES: S=C1CC2(CCCCC2)CN1 [SPM 0013, 2-azaspiro[4.5]decane-3-thion]
- Mean deviation of the pain reaction compared to control (%) (n minutes after administration of formalin) 20-25′ (NMRl mice; 32 mg/kg i.p., n = 10 mice): −99%
- Mean deviation of the pain reaction compared to control (%) (n minutes after administration of formalin) 30-35′ (NMRl mice; 32 mg/kg i.p., n = 10 mice): −32%
- Mean deviation of the pain reaction compared to control (%) (n minutes after administration of formalin) 40-45′ (NMRl mice; 32 mg/kg i.p., n = 10 mice): −4%

SMILES: C1CCC2(CC1)CCNC2 [SPM 0019, 2-azaspiro[4.5]decane]
- Mean deviation of the pain reaction compared to control (%) (n minutes after administration of formalin) 20-25′ (NMRl mice; 32 mg/kg i.p., n = 10 mice): −67%
- Mean deviation of the pain reaction compared to control (%) (n minutes after administration of formalin) 30-35′ (NMRl mice; 32 mg/kg i.p., n = 10 mice): −21%
- Mean deviation of the pain reaction compared to control (%) (n minutes after administration of formalin) 40-45′ (NMRl mice; 32 mg/kg i.p., n = 10 mice): −26%

SMILES: ON=C1CC2(CCCCC2)CN1 [SPM 6850, N-(2-azaspiro[4.5]decane-3)-oxim]
- Mean deviation of the pain reaction compared to control (%) (n minutes after administration of formalin) 20-25′ (NMRl mice; 32 mg/kg i.p., n = 10 mice): (+)
- Mean deviation of the pain reaction compared to control (%) (n minutes after administration of formalin) 30-35′ (NMRl mice; 32 mg/kg i.p., n = 10 mice): −50%
- Mean deviation of the pain reaction compared to control (%) (n minutes after administration of formalin) 40-45′ (NMRl mice; 32 mg/kg i.p., n = 10 mice): −38%
- average reduction of the pain reaction (NMRl mice; 32 mg/kg per Table 1): 44%

SMILES: S=C1CC2(CCCCCC2)CN1 [SPM 6868, 2-azaspiro[4.6]undecane-3-thion]
- Mean deviation of the pain reaction compared to control (%) (n minutes after administration of formalin) 20-25′ (NMRl mice; [8]): −53%
- Mean deviation of the pain reaction compared to control (%) (n minutes after administration of formalin) 30-35′ (NMRl mice; [8]): −7%
- Mean deviation of the pain reaction compared to control (%) (n minutes after administration of formalin) 40-45′ (NMRl mice; [8]): −16%
- Mean deviation of the pain reaction compared to control (%) (n minutes after administration of formalin) 20-25′ (NMRl mice; [4]): −62%
- Mean deviation of the pain reaction compared to control (%) (n minutes after administration of formalin) 30-35′ (NMRl mice; [4]): −29%
- Mean deviation of the pain reaction compared to control (%) (n minutes after administration of formalin) 40-45′ (NMRl mice; [4]): −49%
- Mean deviation of the pain reaction compared to control (%) (n minutes after administration of formalin) 20-25′ (NMRl mice; [5]): −42%
- Mean deviation of the pain reaction compared to control (%) (n minutes after administration of formalin) 30-35′ (NMRl mice; [5]): −30%
- Mean deviation of the pain reaction compared to control (%) (n minutes after administration of formalin) 40-45′ (NMRl mice; [5]): −31%
- Mean deviation of the pain reaction compared to control (%) (n minutes after administration of formalin) 20-25′ (NMRl mice; [6]): −83%
- Mean deviation of the pain reaction compared to control (%) (n minutes after administration of formalin) 30-35′ (NMRl mice; [6]): −0%
- Mean deviation of the pain reaction compared to control (%) (n minutes after administration of formalin) 40-45′ (NMRl mice; [6]): −24%
- Mean deviation of the pain reaction compared to control (%) (n minutes after administration of formalin) 20-25′ (NMRl mice; [9]): −89%
- Mean deviation of the pain reaction compared to control (%) (n minutes after administration of formalin) 30-35′ (NMRl mice; [9]): −67%
- Mean deviation of the pain reaction compared to control (%) (n minutes after administration of formalin) 40-45′ (NMRl mice; [9]): −83%
- Mean deviation of the pain reaction compared to control (%) (n minutes after administration of formalin) 20-25′ (NMRl mice; [10]): −100%
- Mean deviation of the pain reaction compared to control (%) (n minutes after administration of formalin) 30-35′ (NMRl mice; [10]): −98%
- Mean deviation of the pain reaction compared to control (%) (n minutes after administration of formalin) 40-45′ (NMRl mice; [10]): −93%
- melting point: 132.3 °C

SMILES: ON=C1CC2(CCCCCC2)CN1 [SPM 6873, N-(2-azaspiro[4.6]undecane-3)-oxim]
- Mean deviation of the pain reaction compared to control (%) (n minutes after administration of formalin) 20-25′ (NMRl mice; 16 mg/kg i.p., n = 10 mice): (+)
- Mean deviation of the pain reaction compared to control (%) (n minutes after administration of formalin) 30-35′ (NMRl mice; 16 mg/kg i.p., n = 10 mice): −35%
- Mean deviation of the pain reaction compared to control (%) (n minutes after administration of formalin) 40-45′ (NMRl mice; 16 mg/kg i.p., n = 10 mice): −38%
- average reduction of the pain reaction (NMRl mice; 16 mg/kg per Table 1): 36.5%
